# ChEMBL document CHEMBL1782017, “Synthesis and biological evaluation of new flavonoid fatty acid esters with anti-adipogenic and enhancing glucose consumption activities” (2011)
# System: 3T3-L1
# Test: Antiproliferative activity against mouse 3T3L1 cells after 48 hrs by MTT assay
# Type: functional
# Design: concentration or dose not given beside the values
# Conditions: not given
row,Structure (SMILES),Activity [%]
1,CCCCCCCCCCCCCCCCCC(=O)Oc1ccc2c(c1)C(=O)/C(=C/c1ccc(Br)cc1)O2,5.02
2,CCCCCCCCCCCCCCCCCC(=O)Oc1ccc2c(c1)C(=O)/C(=C/c1cccc(OC)c1)O2,-10.94
3,C=CCCCCCCCCC(=O)Oc1ccc2c(c1)C(=O)/C(=C/c1cccc(OC)c1)O2,0.21
4,CCCCCCCCCCCCCCCC(=O)Oc1ccc2c(c1)C(=O)/C(=C/c1ccc(OC)cc1)O2,1.19
5,C=CCCCCCCCCC(=O)Oc1ccc2c(c1)C(=O)/C(=C/c1ccc(OC)cc1)O2,-2.09
6,CCCCCCCCCCCCCCCCCC(=O)Oc1ccc2c(c1)C(=O)/C(=C/c1cccc(Cl)c1)O2,-0.06
7,CCCCCCCC/C=C\CCCCCCCC(=O)Oc1ccc2c(c1)C(=O)/C(=C/c1cccc(OC)c1)O2,-5.41
8,C=CCCCCCCCCC(=O)Oc1ccc2c(c1)C(=O)/C(=C/c1ccc(OC)c(OC)c1)O2,-22.17
9,CCCCCCCCCCCCCCCC(=O)Oc1ccc2c(c1)C(=O)/C(=C/c1ccc(OC)c(OC)c1)O2,-3.72
10,CCCCC/C=C\C=C\CCCCCCCCC(=O)Oc1ccc2c(c1)C(=O)/C(=C/c1cccc(Cl)c1)O2,-11.46
11,CCCCCCCCCCCCCCCC(=O)Oc1ccc2c(c1)C(=O)/C(=C/c1cccc(OC)c1)O2,-20.26
12,CCCCCCCCCCCCCCCCCC(=O)Oc1ccc2c(c1)C(=O)/C(=C/c1ccc(OC)c(OC)c1)O2,-3.84
13,C=CCCCCCCCCC(=O)Oc1ccc2c(c1)O/C(=C\c1ccc(OC)cc1)C2=O,-1.39
14,C=CCCCCCCCCC(=O)Oc1ccc2c(c1)C(=O)/C(=C/c1ccc(Br)cc1)O2,1.25
15,CCCCC/C=C\C=C\CCCCCCCCC(=O)Oc1ccc2c(c1)C(=O)/C(=C/c1ccc(OC)cc1)O2,-24.96
16,CCCCCCCCCCCCCCCC(=O)Oc1ccc2c(c1)C(=O)/C(=C/c1ccc(F)cc1)O2,-0.47
17,CCCCCCCC/C=C\CCCCCCCC(=O)Oc1ccc2c(c1)C(=O)/C(=C/c1cccc(Cl)c1)O2,20.76
18,CCCCCCCCCCCCCCCCCC(=O)Oc1ccc2c(=O)c(Cc3ccc(OC)cc3)coc2c1,-31.87
19,CCCCC/C=C\C=C\CCCCCCCCC(=O)Oc1ccc2c(c1)C(=O)/C(=C/c1ccc(F)cc1)O2,14.2
20,CCCCCCCCCCCCCCCCCC(=O)Oc1ccc2c(c1)C(=O)/C(=C/c1cccc([N+](=O)[O-])c1)O2,-5.03
21,CCCCC/C=C\C=C\CCCCCCCCC(=O)Oc1ccc2c(c1)C(=O)/C(=C/c1cccc(OC)c1)O2,6.45

# System: 3T3-L1
# Test: Inhibition of adipogenesis in mouse 3T3L1 cells at 100 umol/L after 8 days by Oil red O-staining
# Type: functional
# Conditions: 3T3-L1, 192 h
row,Structure (SMILES),inhibition at 100 µM [%]
1,CCCCCCCC/C=C\CCCCCCCC(=O)Oc1ccc2c(c1)C(=O)/C(=C/c1cccc(OC)c1)O2,0
2,CCCCC/C=C\C=C\CCCCCCCCC(=O)Oc1ccc2c(c1)C(=O)/C(=C/c1ccc(OC)cc1)O2,22.6
3,CCCCCCCC/C=C\CCCCCCCC(=O)Oc1ccc2c(c1)C(=O)/C(=C/c1cccc(Cl)c1)O2,0
4,CCCCCCCCCCCCCCCCCC(=O)Oc1ccc2c(=O)c(Cc3ccc(OC)cc3)coc2c1,1.95
5,CCCCC/C=C\C=C\CCCCCCCCC(=O)Oc1ccc2c(c1)C(=O)/C(=C/c1ccc(F)cc1)O2,0
